From patent US20030138935A1, “Selective deactivation of yeast in corn wet milling process slurries” (priority 2002, published 2003)
Where “and” joins values, the source holds several entries; their conditions need not be identical. Equal entries are not always repeated.

What was measured:
[1] = test system: yeast and lactic acid producing bacteria; test: Pour-plate culture on Sabourad-Dextrose Agar (SDA); assay type: cell-based, lactobacillus; settings: for Plate Showing activity, SDA: serial dilution
Procedure: (§1) All tests were conducted using heavy […] samples provided by a major U.S. corn wet milling facility. To confirm the concept that octanoic acid is selective in killing only yeast but not desirable bacteria, microbiological activity was assessed by examining separate culture plates prepared using two different agars. Plates prepared using Potato-Dextrose Agar (PDA) were used to assess the fate of yeast in the present of octanoic acid, as PDA is known to be specific to the propagation of yeast and mold. Plates prepared using Sabourad-Dextrose Agar (SDA) were used to determine the fate of “desired” bacteria as SDA is specific for both yeast and lactic acid producing bacteria. Several serial dilutions (10^1 to 10^7) of heavy […] samples were prepared for the pour plates at 0 ppm (control), 10 ppm, 25 ppm, and 50 ppm (active) of octanoic acid, then agitated in a 100° F. shaking water bath for 4 hours. Plates were similarly prepared using the same samples after agitation for 24 hours. All plates were incubated at […]. for 4 days before performing measurements. In addition to inspecting the plates for microbial activity, aliquots of each sample (after 4 hours and after 24 hours) were examined under a microscope for visual speciation.

[2] = test system: gas-producing microorganisms in corn wet milling heavy steepwater; test: Flask Pressure Profile (gas production in heavy steepwater); assay type: cell-based, yeast; settings: for Manometer readings: 100° F.
Procedure: All tests were conducted using heavy […] samples provided by a major U.S. corn wet milling facility. A Flask Pressure Profile method was developed and used to measure changes in gas production. The sample of heavy […] to an Erlenmeyer flask, then placed into a water bath at 100° F. and agitated slowly (30-40 rpm). The flask was connected to a U-tube manometer filled with distilled water. […] An increase in flask pressure indicated gas-producing microbial activity. Tests using octanoic acid were performed in […] ppm (control), 10 ppm, 25 ppm, and 50 ppm (active).

yeast and mold = test: Pour-plate culture on Potato-Dextrose Agar (PDA); assay type: cell-based; settings: test concentrations from 10-50 ppm; 4 hour and 24 hour incubations
Procedure: as §1

With `CCCCCCCC(=O)O` [Octanoic Acid, Octanoic acid] the “Plate Showing activity, SDA” value ([1]; 10 ppm, sample incubation time 4 hrs) was 10^2, the “Plate Showing activity, SDA” value ([1]; 10 ppm, sample incubation time 24 hrs) was 10^2 and the “Plate Showing activity, SDA” value ([1]; 25 ppm, sample incubation time 4 hrs) was 10^1. For the same molecule, the “Plate Showing activity, SDA” value ([1]; 25 ppm, sample incubation time 24 hrs) was 10^2, the “Plate Showing activity, SDA” value ([1]; 50 ppm, sample incubation time 4 hrs) was 10^2 and the “Plate Showing activity, SDA” value ([1]; 50 ppm, sample incubation time 24 hrs) was 10^2. For the same molecule, the “Effect on activity of lactobacillus” value ([1]; test concentrations from 10-50 ppm, 4 hour and 24 hour incubations) was “do not measurably decrease the activity of lactobacillus”, the Manometer readings ([2]; 10 ppm, t = 0 hours) was 0.0 in H2O and 0 in H2O and the Manometer readings ([2]; 10 ppm, t = 1 hours) was 0.0 in H2O. The Manometer readings ([2]; 10 ppm, t = 1.5 hours) was 0.0 in H2O, the Manometer readings ([2]; 10 ppm, t = 2 hours) was 0.0 in H2O and the Manometer readings ([2]; 10 ppm, t = 2.5 hours) was 0.0 in H2O. The Manometer readings ([2]; 10 ppm, t = 3 hours) was 0.0 in H2O, the Manometer readings ([2]; 10 ppm, t = 3.5 hours) was 0.0 in H2O and the Manometer readings ([2]; 10 ppm, t = 4 hours) was 0.0 in H2O. For the same molecule, the Manometer readings ([2]; 10 ppm, t = 4.5 hours) was 0.0 in H2O, the Manometer readings ([2]; 10 ppm, t = 5 hours) was 0.0 in H2O and the Manometer readings ([2]; 10 ppm, t = 5.5 hours) was 0.0 in H2O. It also gave a Manometer readings ([2]; 10 ppm, t = 6 hours) of 0.0 in H2O, a Manometer readings ([2]; 10 ppm, t = 6.5 hours) of 0.0 in H2O and a Manometer readings ([2]; 25 ppm, t = 0 hours) of 0.0 in H2O. The Manometer readings ([2]; 25 ppm, t = 0.5 hours) was 0.25 in H2O, the Manometer readings ([2]; 25 ppm, t = 1 hours) was 0.0 in H2O and the Manometer readings ([2]; 25 ppm, t = 1.5 hours) was 0.0 in H2O. For the same molecule, the Manometer readings ([2]; 25 ppm, t = 2 hours) was 0.0 in H2O, the Manometer readings ([2]; 25 ppm, t = 2.5 hours) was 0.0 in H2O and the Manometer readings ([2]; 25 ppm, t = 3 hours) was 0.0 in H2O. For the same molecule, the Manometer readings ([2]; 25 ppm, t = 3.5 hours) was 0.0 in H2O, the Manometer readings ([2]; 25 ppm, t = 4 hours) was 0.0 in H2O and the Manometer readings ([2]; 25 ppm, t = 4.5 hours) was 0.0 in H2O. The Manometer readings ([2]; 25 ppm, t = 5 hours) was 0.0 in H2O, the Manometer readings ([2]; 25 ppm, t = 5.5 hours) was 0.0 in H2O and the Manometer readings ([2]; 25 ppm, t = 6 hours) was 0.0 in H2O. The Manometer readings ([2]; 25 ppm, t = 6.5 hours) was 0.0 in H2O, the Manometer readings ([2]; 50 ppm, t = 0 hours) was 0.0 in H2O and the Manometer readings ([2]; 50 ppm, t = 0.5 hours) was 0.0 in H2O. For the same molecule, the Manometer readings ([2]; 50 ppm, t = 1 hours) was 0.0 in H2O, the Manometer readings ([2]; 50 ppm, t = 1.5 hours) was 0.0 in H2O and the Manometer readings ([2]; 50 ppm, t = 2 hours) was 0.0 in H2O. The Manometer readings ([2]; 50 ppm, t = 2.5 hours) was 0.0 in H2O, the Manometer readings ([2]; 50 ppm, t = 3 hours) was 0.0 in H2O and the Manometer readings ([2]; 50 ppm, t = 3.5 hours) was 0.0 in H2O. It also gave a Manometer readings ([2]; 50 ppm, t = 4 hours) of 0.0 in H2O, a Manometer readings ([2]; 50 ppm, t = 4.5 hours) of 0.0 in H2O and a Manometer readings ([2]; 50 ppm, t = 5 hours) of 0.0 in H2O. It also gave a Manometer readings ([2]; 50 ppm, t = 5.5 hours) of 0.0 in H2O, a Manometer readings ([2]; 50 ppm, t = 6 hours) of 0.0 in H2O and a Manometer readings ([2]; 50 ppm, t = 6.5 hours) of 0.0 in H2O. The “Effect on gas-producing microorganisms” value ([2]; all of the applied dosages (10, 25, 50 ppm), heavy steepwater) was “effectively reduces all gas-producing microorganisms” and the Effect on yeast (yeast and mold) was “selectively kills the yeast”.
